The text below walks through data of patent US20090042957A1, “Substituted Oxyarenes” (Bayer CropScience AG, priority 2004, published 2009).

In one data set the test system is Spodoptera frugiperda. The experiment in a line: Spodoptera frugiperda test (spray treatment). In kind it is in vivo. To be noted: for Kill rate in % after 7d: active compound concentration 500 g/ha, sprayed corn leaf disks (Zea mays), caterpillars. How it is done: Spodoptera frugiperda Test (Spray Treatment) [table] To produce a suitable preparation of active compound, 1 part by weight of active compound is mixed with the stated amounts of solvents and emulsifier, and the concentrate is diluted with emulsifier-containing water to the desired concentration. Disks of corn leaves (Zea mays) are sprayed with an active compound preparation of the desired concentration and, after drying, populated with caterpillars of the armyworm (Spodoptera frugiperda). After the desired period of time, the effect in % is determined. 100% means that all caterpillars have been killed; 0% means that none of the caterpillars have been killed.

The next data set is described as follows: log P (pH 2.3). In kind it is physicochemical.
Another data set concerns Tetranychus urticae. The data set can be described thus: Tetranychus test; OP-resistant (TETRUR spray treatment). In kind it is in vivo. To be noted: active compound concentration 100 g/ha, sprayed bean leaf disks (Phaseolus vulgaris), all stages of spider mite. How it is done: Tetranychus Test; OP-Resistant (TETRUR Spray Treatment)
To produce a suitable preparation of active compound, 1 part by weight of active compound is mixed with the stated amounts of solvents and emulsifier, and the concentrate is diluted with emulsifier-containing water to the desired concentration.
Disks of bean leaves (Phaseolus vulgaris) which are infested by all stages of the greenhouse red spider mite (Tetranychus urticae) are sprayed with an active compound preparation of the desired concentration.
After the desired period of time, the effect in % is determined. 100% means that all spider mites have been killed; 0% means that none of the spider mites have been killed.

For the compound `CCn1nnc(-c2ccc(OCCCC3CC(c4cc(OCC=C(Cl)Cl)cc(Cl)c4OC)=NO3)cc2)n1` (stereo not shown), the “Kill rate in % after 7d” value in the data set on Spodoptera frugiperda turned out to be 100%. Same read-out and setting: the same measure for `COc1c(Cl)cc(OCC=C(Cl)Cl)cc1C1=NOC(CCCOc2ccc(N3CCCC3=O)cc2)C1` (stereo not shown): 100%; for `CO/N=C/c1ccc(OCCCC2CC(c3cc(OCC=C(Cl)Cl)cc(Cl)c3OC)=NO2)cc1` (stereo not shown): 100%.

With `COc1c(Cl)cc(OCC=C(Cl)Cl)cc1C1=NOC(CCCOc2ccc3c(c2)CCCC3=O)C1` (stereo not shown), the “Kill rate in % after 7d” value in the data set with Spodoptera frugiperda was determined as 100%. Regarding `CCn1nnc(-c2ccc(OCCCC3CC(c4cc(OCC=C(Cl)Cl)cc(Cl)c4OC)=NO3)cc2)n1` (racemic) [Example I-1], the “activity in Spodoptera frugiperda test” value with Spodoptera frugiperda (spray treatment, result in words) was “good activity”. `COc1c(Cl)cc(OCC=C(Cl)Cl)cc1-c1nnc(CCCOCc2ccccc2)s1` [2-(3-benzyloxypropyl)-5-[3-chloro-5-(3,3-dichloroallyloxy)-2-methoxyphenyl]-[1,3,4]thiadiazole] displayed a logP in “log P (pH 2.3)” of 5.67. On the same count and under the same terms, the figure for `COc1c(Cl)cc(OCC=C(Cl)Cl)cc1C(=O)NNC(=O)CCCOCc1ccccc1` [3-chloro-5-(3,3-dichloroallyloxy)-2-methoxybenzoic acid N′-(4-benzyloxybutyryl)hydrazide] is 3.79. Regarding `COc1c(Cl)cc(OCC=C(Cl)Cl)cc1C1=NOC(CCCOc2cccc3c2OC(C)(C)C3)C1` (stereo not shown) [drawing 44], in the data set on Spodoptera frugiperda, the “Kill rate in % after 7d” value was 100%. Regarding `COc1c(Cl)cc(OCC=C(Cl)Cl)cc1C1=NOC(CCCOc2cccc3c2OC(C)(C)C3)C1` (stereo not shown) [drawing 46], the “Kill rate in % after 7d” value in the data set with Tetranychus urticae was found to be 90%. In the data set “log P (pH 2.3)”, `COc1c(Cl)cc(OCC=C(Cl)Cl)cc1C1=NC(CO)CO1` (stereo not shown) [{2-[3-chloro-5-(3,3-dichloroallyloxy)-2-methoxyphenyl]-4,5-dihydrooxazol-4-yl}methanol] displayed a logP of 2.05.
